According to ChEMBL document CHEMBL4507317, “Data for DCP probe BAY-899” (2021):

Tests used:
[1] = molecular target: Tyrosine-protein kinase ABL1 (Homo sapiens) (UniProt P00519); settings: Compound concentration 1000.0 nM
[2] = molecular target: cGMP-dependent protein kinase 1 (Homo sapiens) (UniProt Q13976); settings: Compound concentration 1000.0 nM
[3] = molecular target: Serine/threonine-protein kinase Sgk2 (Homo sapiens) (UniProt Q9HBY8); settings: Compound concentration 1000.0 nM
[4] = molecular target: Cyclin-dependent kinase 18 (Homo sapiens) (UniProt Q07002); settings: Compound concentration 1000.0 nM
[5] = system: Epidermal growth factor receptor (Homo sapiens), P00533 [UNDEFINED MUTATION]; settings: Compound concentration 1000.0 nM
[6] = molecular target: Fibroblast growth factor receptor 3 (Homo sapiens) (UniProt P22607); settings: Compound concentration 1000.0 nM
[7] = system: Mast/stem cell growth factor receptor Kit (Homo sapiens), P10721 [A829P]; settings: Compound concentration 1000.0 nM
[8] = molecular target: Macrophage-stimulating protein receptor (Homo sapiens) (UniProt Q04912); settings: Compound concentration 1000.0 nM
[9] = molecular target: RAF proto-oncogene serine/threonine-protein kinase (Homo sapiens) (UniProt P04049); settings: Compound concentration 1000.0 nM
[10] = molecular target: Serine/threonine-protein kinase B-raf (Homo sapiens) (UniProt P15056); settings: Compound concentration 1000.0 nM
[11] = molecular target: Serine/threonine-protein kinase 26 (Homo sapiens) (UniProt Q9P289); settings: Compound concentration 1000.0 nM
[12] = molecular target: Testis-specific serine/threonine-protein kinase 3 (Homo sapiens) (UniProt Q96PN8); settings: Compound concentration 1000.0 nM
[13] = system: Mast/stem cell growth factor receptor Kit (Homo sapiens), P10721 [V559D,T670I]; settings: Compound concentration 1000.0 nM
[14] = molecular target: Serine/threonine-protein kinase ULK3 (Homo sapiens) (UniProt Q6PHR2); settings: Compound concentration 1000.0 nM
[15] = molecular target: TGF-beta receptor type-2 (Homo sapiens) (UniProt P37173); settings: Compound concentration 1000.0 nM
[16] = molecular target: Mitogen-activated protein kinase kinase kinase 4 (Homo sapiens) (UniProt Q9Y6R4); settings: Compound concentration 1000.0 nM
[17] = molecular target: Histamine H3 receptor (Homo sapiens) (UniProt Q9Y5N1); settings: Compound concentration 10.0 uM
[18] = molecular target: Serine/threonine-protein kinase MARK1 (Homo sapiens) (UniProt Q9P0L2); settings: Compound concentration 1000.0 nM
[19] = molecular target: Serine/threonine-protein kinase Nek3 (Homo sapiens) (UniProt P51956); settings: Compound concentration 1000.0 nM
[20] = molecular target: Ephrin type-A receptor 8 (Homo sapiens) (UniProt P29322); settings: Compound concentration 1000.0 nM
[21] = molecular target: Histamine H2 receptor (Homo sapiens) (UniProt P25021); settings: Compound concentration 10.0 uM
[22] = molecular target: MAP/microtubule affinity-regulating kinase 4 (Homo sapiens) (UniProt Q96L34); settings: Compound concentration 1000.0 nM
[23] = molecular target: Cyclin-dependent kinase-like 3 (Homo sapiens) (UniProt Q8IVW4); settings: Compound concentration 1000.0 nM
[24] = molecular target: Macrophage colony-stimulating factor 1 receptor (Homo sapiens) (UniProt P07333); settings: Compound concentration 1000.0 nM
[25] = molecular target: Serine/threonine-protein kinase Nek1 (Homo sapiens) (UniProt Q96PY6); settings: Compound concentration 1000.0 nM
[26] = molecular target: Mitogen-activated protein kinase 7 (Homo sapiens) (UniProt Q13164); settings: Compound concentration 1000.0 nM
[27] = molecular target: Serine/threonine-protein kinase tousled-like 1 (Homo sapiens) (UniProt Q9UKI8); settings: Compound concentration 1000.0 nM
[28] = molecular target: Death-associated protein kinase 2 (Homo sapiens) (UniProt Q9UIK4); settings: Compound concentration 1000.0 nM
[29] = molecular target: Serine/threonine-protein kinase SIK3 (Homo sapiens) (UniProt Q9Y2K2); settings: Compound concentration 1000.0 nM
[30] = molecular target: Mitogen-activated protein kinase 6 (Homo sapiens) (UniProt Q16659); settings: Compound concentration 1000.0 nM
[31] = molecular target: Tyrosine-protein kinase Fes/Fps (Homo sapiens) (UniProt P07332); settings: Compound concentration 1000.0 nM
[32] = system: Phosphatidylinositol 4,5-bisphosphate 3-kinase catalytic subunit alpha isoform (Homo sapiens), P42336 [H1047Y]; settings: Compound concentration 1000.0 nM
[33] = molecular target: Alpha-2B adrenergic receptor (Homo sapiens) (UniProt P18089); settings: Compound concentration 10.0 uM
[34] = molecular target: Focal adhesion kinase 1 (Homo sapiens) (UniProt Q05397); settings: Compound concentration 1000.0 nM
[35] = molecular target: Myosin light chain kinase, smooth muscle (Homo sapiens) (UniProt Q15746); settings: Compound concentration 1000.0 nM
[36] = molecular target: Serine/threonine-protein kinase NLK (Homo sapiens) (UniProt Q9UBE8); settings: Compound concentration 1000.0 nM
[37] = molecular target: Phosphatidylinositol 3-kinase C2 domain-containing subunit gamma (Homo sapiens) (UniProt O75747); settings: Compound concentration 1000.0 nM
[38] = molecular target: Serine/threonine-protein kinase LATS1 (Homo sapiens) (UniProt O95835); settings: Compound concentration 1000.0 nM
[39] = molecular target: Cyclin-dependent kinase 2 (Homo sapiens) (UniProt P24941); settings: Compound concentration 1000.0 nM
[40] = molecular target: Mitogen-activated protein kinase kinase kinase kinase 3 (Homo sapiens) (UniProt Q8IVH8); settings: Compound concentration 1000.0 nM
[41] = system: Receptor-type tyrosine-protein kinase FLT3 (Homo sapiens), P36888 [D835H]; settings: Compound concentration 1000.0 nM
[42] = molecular target: Insulin receptor-related protein (Homo sapiens) (UniProt P14616); settings: Compound concentration 1000.0 nM
[43] = molecular target: Mitogen-activated protein kinase kinase kinase 15 (Homo sapiens) (UniProt Q6ZN16); settings: Compound concentration 1000.0 nM
[44] = molecular target: D(4) dopamine receptor (Homo sapiens) (UniProt P21917); settings: Compound concentration 10.0 uM
[45] = molecular target: Fibroblast growth factor receptor 4 (Homo sapiens) (UniProt P22455); settings: Compound concentration 1000.0 nM

Phosphatidylinositol 4,5-bisphosphate 3-kinase catalytic subunit alpha isoform (Homo sapiens), P42336 [H1047Y], sequence (P42336 whole entry H1047Y, canonical isoform): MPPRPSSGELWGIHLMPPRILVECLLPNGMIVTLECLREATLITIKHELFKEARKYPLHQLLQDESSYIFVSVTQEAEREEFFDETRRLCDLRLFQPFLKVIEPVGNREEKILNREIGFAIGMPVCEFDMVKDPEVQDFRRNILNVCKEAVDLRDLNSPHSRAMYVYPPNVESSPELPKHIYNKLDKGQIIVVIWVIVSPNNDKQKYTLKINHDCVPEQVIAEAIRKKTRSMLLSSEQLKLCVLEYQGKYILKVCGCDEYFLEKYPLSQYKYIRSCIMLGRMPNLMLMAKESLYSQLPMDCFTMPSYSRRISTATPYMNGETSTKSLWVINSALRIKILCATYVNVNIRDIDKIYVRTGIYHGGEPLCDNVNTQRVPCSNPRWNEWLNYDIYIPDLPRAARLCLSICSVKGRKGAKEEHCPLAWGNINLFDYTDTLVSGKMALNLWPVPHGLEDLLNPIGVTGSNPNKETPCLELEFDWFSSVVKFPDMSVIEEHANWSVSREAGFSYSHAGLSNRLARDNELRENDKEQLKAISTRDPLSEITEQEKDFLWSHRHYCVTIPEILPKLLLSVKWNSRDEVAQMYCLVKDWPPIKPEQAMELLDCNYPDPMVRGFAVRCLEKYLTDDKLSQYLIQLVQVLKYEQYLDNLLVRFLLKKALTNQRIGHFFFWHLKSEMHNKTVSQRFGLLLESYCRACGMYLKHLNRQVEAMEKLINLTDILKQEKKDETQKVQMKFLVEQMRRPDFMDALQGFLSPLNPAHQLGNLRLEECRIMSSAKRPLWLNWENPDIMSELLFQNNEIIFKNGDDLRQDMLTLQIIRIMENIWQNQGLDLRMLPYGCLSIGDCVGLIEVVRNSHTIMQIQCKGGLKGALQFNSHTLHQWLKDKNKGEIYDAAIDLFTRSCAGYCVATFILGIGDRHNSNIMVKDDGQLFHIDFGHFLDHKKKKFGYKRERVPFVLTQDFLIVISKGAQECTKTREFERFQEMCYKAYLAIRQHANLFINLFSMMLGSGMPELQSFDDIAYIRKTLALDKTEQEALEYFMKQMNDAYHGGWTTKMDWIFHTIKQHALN
D(4) dopamine receptor (Homo sapiens), sequence (P21917 whole entry): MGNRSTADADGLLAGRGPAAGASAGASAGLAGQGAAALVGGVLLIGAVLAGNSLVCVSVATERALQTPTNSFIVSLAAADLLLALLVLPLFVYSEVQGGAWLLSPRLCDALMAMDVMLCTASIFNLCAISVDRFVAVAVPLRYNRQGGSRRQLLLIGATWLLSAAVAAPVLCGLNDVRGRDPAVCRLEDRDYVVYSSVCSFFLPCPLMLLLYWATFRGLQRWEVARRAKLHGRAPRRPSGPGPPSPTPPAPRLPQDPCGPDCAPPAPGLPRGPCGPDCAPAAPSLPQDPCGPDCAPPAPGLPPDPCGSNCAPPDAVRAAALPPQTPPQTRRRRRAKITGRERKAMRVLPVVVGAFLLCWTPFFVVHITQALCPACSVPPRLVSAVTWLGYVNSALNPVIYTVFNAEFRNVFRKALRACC
Tyrosine-protein kinase Fes/Fps (Homo sapiens), sequence (P07332 whole entry, canonical isoform): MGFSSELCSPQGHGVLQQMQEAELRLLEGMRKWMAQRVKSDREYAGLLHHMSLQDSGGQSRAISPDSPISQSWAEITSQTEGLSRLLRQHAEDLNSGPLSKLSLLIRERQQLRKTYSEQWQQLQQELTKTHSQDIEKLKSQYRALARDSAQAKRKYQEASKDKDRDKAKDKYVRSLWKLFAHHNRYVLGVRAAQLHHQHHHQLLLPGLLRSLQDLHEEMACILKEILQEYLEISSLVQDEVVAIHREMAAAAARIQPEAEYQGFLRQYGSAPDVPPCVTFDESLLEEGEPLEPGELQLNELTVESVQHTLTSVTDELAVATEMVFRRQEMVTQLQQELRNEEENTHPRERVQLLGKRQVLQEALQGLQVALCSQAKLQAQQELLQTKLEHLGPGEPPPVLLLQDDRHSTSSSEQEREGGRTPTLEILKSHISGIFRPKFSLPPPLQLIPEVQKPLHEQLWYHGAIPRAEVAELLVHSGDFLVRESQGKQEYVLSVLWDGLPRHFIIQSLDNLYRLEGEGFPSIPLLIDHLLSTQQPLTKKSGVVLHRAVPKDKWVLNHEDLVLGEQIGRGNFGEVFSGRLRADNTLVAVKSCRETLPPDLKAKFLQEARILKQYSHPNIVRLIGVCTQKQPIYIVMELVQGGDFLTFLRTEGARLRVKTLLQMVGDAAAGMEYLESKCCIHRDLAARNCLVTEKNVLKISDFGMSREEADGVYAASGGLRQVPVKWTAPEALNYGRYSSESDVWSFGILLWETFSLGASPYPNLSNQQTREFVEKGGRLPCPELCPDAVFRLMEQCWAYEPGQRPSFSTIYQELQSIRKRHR
Mast/stem cell growth factor receptor Kit (Homo sapiens), P10721 [V559D,T670I], sequence (P10721 whole entry V559D/T670I): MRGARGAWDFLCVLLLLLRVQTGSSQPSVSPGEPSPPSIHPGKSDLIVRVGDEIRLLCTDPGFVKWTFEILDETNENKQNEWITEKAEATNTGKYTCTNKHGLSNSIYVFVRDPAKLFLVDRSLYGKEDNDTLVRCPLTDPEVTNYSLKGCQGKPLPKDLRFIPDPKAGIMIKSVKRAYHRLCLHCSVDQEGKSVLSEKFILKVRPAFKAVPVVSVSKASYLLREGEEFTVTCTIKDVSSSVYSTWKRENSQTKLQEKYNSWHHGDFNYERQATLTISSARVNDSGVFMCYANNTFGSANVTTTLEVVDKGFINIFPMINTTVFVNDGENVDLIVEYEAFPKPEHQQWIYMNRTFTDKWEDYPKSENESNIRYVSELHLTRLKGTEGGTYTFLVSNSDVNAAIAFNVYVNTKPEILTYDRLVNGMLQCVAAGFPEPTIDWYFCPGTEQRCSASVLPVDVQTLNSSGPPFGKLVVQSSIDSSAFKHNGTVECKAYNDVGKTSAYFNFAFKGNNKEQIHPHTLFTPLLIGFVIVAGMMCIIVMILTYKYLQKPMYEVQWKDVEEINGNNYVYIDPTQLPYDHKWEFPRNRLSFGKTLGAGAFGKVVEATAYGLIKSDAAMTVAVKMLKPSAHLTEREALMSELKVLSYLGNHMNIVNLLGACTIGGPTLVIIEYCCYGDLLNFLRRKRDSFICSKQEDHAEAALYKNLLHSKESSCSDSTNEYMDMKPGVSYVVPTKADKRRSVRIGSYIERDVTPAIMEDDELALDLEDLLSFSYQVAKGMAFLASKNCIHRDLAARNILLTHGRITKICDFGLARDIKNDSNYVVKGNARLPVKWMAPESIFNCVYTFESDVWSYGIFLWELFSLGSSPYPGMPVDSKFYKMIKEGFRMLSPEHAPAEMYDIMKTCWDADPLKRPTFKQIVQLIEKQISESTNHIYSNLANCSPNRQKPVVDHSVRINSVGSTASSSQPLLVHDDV
TGF-beta receptor type-2 (Homo sapiens), sequence (P37173 whole entry): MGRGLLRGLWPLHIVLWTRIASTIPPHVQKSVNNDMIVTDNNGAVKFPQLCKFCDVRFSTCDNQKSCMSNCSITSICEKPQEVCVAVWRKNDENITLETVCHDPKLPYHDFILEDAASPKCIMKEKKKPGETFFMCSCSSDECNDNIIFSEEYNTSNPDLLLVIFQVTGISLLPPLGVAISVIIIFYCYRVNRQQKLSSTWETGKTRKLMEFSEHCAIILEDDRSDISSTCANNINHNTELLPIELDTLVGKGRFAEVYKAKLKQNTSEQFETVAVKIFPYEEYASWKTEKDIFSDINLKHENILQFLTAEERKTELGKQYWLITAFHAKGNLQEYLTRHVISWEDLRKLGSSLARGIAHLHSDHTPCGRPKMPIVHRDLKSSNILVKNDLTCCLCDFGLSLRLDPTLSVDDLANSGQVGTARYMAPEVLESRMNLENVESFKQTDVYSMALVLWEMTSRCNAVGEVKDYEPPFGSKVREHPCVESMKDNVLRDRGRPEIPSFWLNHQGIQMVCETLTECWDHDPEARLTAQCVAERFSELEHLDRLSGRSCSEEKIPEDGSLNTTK
Histamine H3 receptor (Homo sapiens), sequence (Q9Y5N1 whole entry): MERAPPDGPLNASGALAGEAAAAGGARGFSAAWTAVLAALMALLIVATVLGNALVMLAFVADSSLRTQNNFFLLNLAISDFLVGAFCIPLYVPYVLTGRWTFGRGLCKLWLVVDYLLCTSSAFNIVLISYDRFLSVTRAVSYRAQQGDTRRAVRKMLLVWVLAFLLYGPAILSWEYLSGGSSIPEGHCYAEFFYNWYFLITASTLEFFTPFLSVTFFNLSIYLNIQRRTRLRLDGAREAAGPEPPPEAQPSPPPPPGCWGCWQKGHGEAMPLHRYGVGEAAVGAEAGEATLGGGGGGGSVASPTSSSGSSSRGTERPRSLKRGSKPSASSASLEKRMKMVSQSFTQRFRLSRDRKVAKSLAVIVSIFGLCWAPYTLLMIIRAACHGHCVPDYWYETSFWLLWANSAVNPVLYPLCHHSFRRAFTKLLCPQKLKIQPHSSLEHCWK
Mitogen-activated protein kinase 6 (Homo sapiens), sequence (Q16659 whole entry): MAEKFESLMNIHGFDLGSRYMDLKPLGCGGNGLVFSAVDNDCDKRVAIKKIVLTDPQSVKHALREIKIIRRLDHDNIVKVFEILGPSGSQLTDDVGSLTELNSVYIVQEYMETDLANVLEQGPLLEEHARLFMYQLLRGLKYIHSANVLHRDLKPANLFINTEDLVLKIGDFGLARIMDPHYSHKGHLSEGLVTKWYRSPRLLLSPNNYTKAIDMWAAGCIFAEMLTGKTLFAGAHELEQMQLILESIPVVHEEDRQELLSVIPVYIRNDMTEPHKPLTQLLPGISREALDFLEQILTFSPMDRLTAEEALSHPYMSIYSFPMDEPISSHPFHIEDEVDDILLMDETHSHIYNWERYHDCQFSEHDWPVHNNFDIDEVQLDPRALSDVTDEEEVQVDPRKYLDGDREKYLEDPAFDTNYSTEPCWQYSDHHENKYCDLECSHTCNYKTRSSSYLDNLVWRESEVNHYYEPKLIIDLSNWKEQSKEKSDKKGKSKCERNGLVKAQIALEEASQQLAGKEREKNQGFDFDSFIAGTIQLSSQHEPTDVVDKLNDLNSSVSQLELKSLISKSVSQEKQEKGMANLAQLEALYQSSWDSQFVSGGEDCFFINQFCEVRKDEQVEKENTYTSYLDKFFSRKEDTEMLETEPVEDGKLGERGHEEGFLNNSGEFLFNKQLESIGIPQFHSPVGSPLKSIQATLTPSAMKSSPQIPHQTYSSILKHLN

O=C(Nc1ccc(Oc2ccc(F)cc2)cc1)N1CCc2ncccc2[C@H]1c1ccc(F)cc1 [BAY-897]
inactive: residual activity [1] 100% | residual activity [2] 91% | residual activity [3] 100% | residual activity [4] 98% | residual activity [5] 92% | residual activity [6] 83% | residual activity [7] 100% | residual activity [8] 98% | residual activity [9] 100% | residual activity [10] 85% | residual activity [11] 100% | residual activity [12] 98% | residual activity [13] 85% | residual activity [14] 99% | residual activity [15] 91% | residual activity [16] 100% | inhibition [17] 3.57% | residual activity [18] 81% | residual activity [19] 64% | residual activity [20] 92% | inhibition [21] 7.29% | residual activity [22] 86% | residual activity [23] 82% | residual activity [24] 90% | residual activity [25] 100% | residual activity [26] 96% | residual activity [27] 100% | residual activity [28] 100% | residual activity [29] 100% | residual activity [30] 98% | residual activity [31] 100% | residual activity [32] 100% | inhibition [33] 49.6% | residual activity [34] 100% | residual activity [35] 100% | residual activity [36] 87% | residual activity [37] 100% | residual activity [38] 86% | residual activity [39] 90% | residual activity [40] 90% | residual activity [41] 86% | residual activity [42] 94% | residual activity [43] 100% | inhibition [44] 0.29% | residual activity [45] 95%

O=C(Nc1cnc(Oc2ccc(F)cc2)nc1)N1CCc2ncccc2[C@@H]1c1ccc(F)cc1 [BAY-899]
inactive: residual activity [1] 93% | residual activity [2] 89% | residual activity [3] 79% | residual activity [4] 96% | residual activity [5] 86% | residual activity [6] 89% | residual activity [7] 100% | residual activity [8] 100% | residual activity [9] 100% | residual activity [10] 74% | residual activity [11] 90% | residual activity [12] 86% | residual activity [13] 84% | residual activity [14] 95% | residual activity [15] 100% | residual activity [16] 89% | inhibition [17] -8.41% | residual activity [18] 71% | residual activity [19] 67% | residual activity [20] 88% | inhibition [21] 2.75% | residual activity [22] 91% | residual activity [23] 77% | residual activity [24] 78% | residual activity [25] 84% | residual activity [26] 96% | residual activity [27] 90% | residual activity [28] 91% | residual activity [29] 86% | residual activity [30] 100% | residual activity [31] 100% | residual activity [32] 100% | inhibition [33] 9.66% | residual activity [34] 100% | residual activity [35] 100% | residual activity [36] 73% | residual activity [37] 97% | residual activity [38] 100% | residual activity [39] 100% | residual activity [40] 87% | residual activity [41] 100% | residual activity [42] 84% | residual activity [43] 100% | inhibition [44] 43.8% | residual activity [45] 98%
